As usually defined, the IC50 is the concentration needed to halve the response being measured. Broadly, the EC50 is the concentration that produces a half-maximal response.

Like-named read-outs stand apart in the source and are kept apart here.

We go through 13 molecules from patent publication US10364256B2 (GlaxoSmithKline Intellectual Property Development Limited, priority 2015, dated 2019).

The target of assay [1] is T1, Keap1 Kelch domain (321-609) / TAMRA-labeled 16mer NRF2 peptide (ETGE motif) (Homo sapiens, UniProt Q14145).
T1 construct: the Kelch domain (321-609) of Keap1 is used
T1 sequence (Q14145 321-609): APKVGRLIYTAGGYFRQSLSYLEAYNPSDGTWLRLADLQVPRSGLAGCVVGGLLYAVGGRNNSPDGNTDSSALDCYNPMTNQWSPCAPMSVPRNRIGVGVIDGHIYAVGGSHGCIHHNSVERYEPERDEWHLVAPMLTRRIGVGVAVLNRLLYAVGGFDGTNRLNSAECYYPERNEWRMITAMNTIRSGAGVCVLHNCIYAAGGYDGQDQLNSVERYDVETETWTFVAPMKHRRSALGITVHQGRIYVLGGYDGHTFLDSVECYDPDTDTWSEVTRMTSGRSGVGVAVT
Description: NRF2-Keap1 FP Assay (Keap1 Kelch fluorescence polarization). Particulars: 20 nM Keap1 (321-609), 8 nM Tamra labeled peptide. It is filed as binding. The method, boiled down:
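Compound dilutions (3-fold) were incubated 1 hr at room temperature with 20 nM Keap1 Kelch (321-609) and 8 nM TAMRA-labeled ETGE 16mer peptide. Buffer was 50 mM Tris pH 8.0, 100 mM NaCl, 5 mM MgCl2, 1 mM DTT, 2 mM CHAPS, 0.005% BSA. Fluorescence polarization (mP) was normalized to controls and fitted with a four-parameter equation to give pIC50.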

In assay [2] the target is T2, full length Keap1 protein / full length NRF2 protein (Homo sapiens, UniProt Q14145).
T2 construct: full length NRF2 protein and full length Keap1 protein (Keap1 exists a dimer) are used; His
T2 sequence (Q14145 whole entry): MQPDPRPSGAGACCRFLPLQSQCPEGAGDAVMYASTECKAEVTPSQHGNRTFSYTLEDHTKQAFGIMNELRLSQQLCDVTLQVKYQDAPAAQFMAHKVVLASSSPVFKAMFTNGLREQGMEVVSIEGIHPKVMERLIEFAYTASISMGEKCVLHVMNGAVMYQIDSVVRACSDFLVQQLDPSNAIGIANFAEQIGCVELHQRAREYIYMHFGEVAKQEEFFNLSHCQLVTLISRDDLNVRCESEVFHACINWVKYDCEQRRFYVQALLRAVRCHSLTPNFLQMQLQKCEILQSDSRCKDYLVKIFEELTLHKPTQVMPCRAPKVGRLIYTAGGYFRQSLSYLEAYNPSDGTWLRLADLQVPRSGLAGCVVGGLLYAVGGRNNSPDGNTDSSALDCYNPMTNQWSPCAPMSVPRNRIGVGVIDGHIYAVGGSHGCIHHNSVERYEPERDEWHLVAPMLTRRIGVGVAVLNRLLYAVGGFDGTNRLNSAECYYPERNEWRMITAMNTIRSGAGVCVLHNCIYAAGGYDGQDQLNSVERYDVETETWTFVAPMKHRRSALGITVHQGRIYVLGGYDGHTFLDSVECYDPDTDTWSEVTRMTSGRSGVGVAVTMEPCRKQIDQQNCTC
The assay is described as follows: NRF2-Keap1 TR-FRET Assay. It is filed as binding. Particulars: 25 nM Keap1-FlagHis and 50 nM biotin-NRF2 added. In a few lines: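 Displacement of biotinylated full-length NRF2 from full-length Keap1 read by Eu/APC TR-FRET (665/615 nm) after 1 h detection at RT. Compound, 3-fold series, first incubated with Keap1 at 37 °C for 2.25 h, NRF2 then added at 4 °C for 1.25 h; pIC50 by four-parameter equation.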
Background: In TR-FRET formats the signal depends on donor and acceptor labels being close together.

For assay [3], the system named is NQO1 specific enzyme activity in BEAS-2B cells (marker for NRF2 activation). The assay is described as follows: BEAS-2B NQO1 MTT Assay. Particulars: Homo sapiens, compound incubated 48 hours, read-out: EC50 (NQO1 specific enzyme activity induction). It is filed as cell-based. The method, boiled down:
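NQO1 specific activity induction is derived from the rate of MTT reduction (ΔOD/min, 570 nm, 30 min kinetic read) in crude lysates of BEAS-2B cells exposed to compound for 48 h. A 3-parameter fit gives EC50, reported as pEC50; part of each lysate goes to Cell Titer Glo.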

In the case of `O=C(O)c1cnn(-c2cccc(-c3cccc(C(=O)N4CCCCCC4)c3)c2)c1C1CC1` [Example 10, 1-{3-[3-(Azepane-1-carbonyl)phenyl]phenyl}-5-cyclopropyl-1H-pyrazole-4-carboxylic Acid], the values for the half-maximal inhibitory concentration (IC50) in assay [1] and in assay [2] were 100 to 1000 nM and 1000 to 10000 nM, respectively. Moreover, the half-maximal effective concentration (EC50) in assay [3] lay in the range of 1000 to 10000 nM.
With `CC(COc1cccc(-c2cccc(-n3ncc(C(=O)O)c3C3CC3c3cn(C)nn3)c2)c1)C1CCCCC1` (stereo not drawn) [Example 173, 1-(3′-(2-Cyclohexylpropoxy)-[1,1′-biphenyl]-3-yl)-5-(2-(1-methyl-1H-1,2,3-triazol-4-yl)cyclopropyl)-1H-pyrazole-4-carboxylic acid], the IC50 in assay [1] lay within 10 to 100 nM; in assay [2] it was 100 to 1000 nM. Moreover, the EC50 in assay [3] was 10 to 100 nM.
For `O=C(O)c1cnn(-c2cccc(-c3cccc(C(=O)N4CCCCCC4)c3F)c2)c1C1CC1` [Example 7, 1-{3-[3-(azepane-1-carbonyl)-2-fluorophenyl]phenyl}-5-cyclopropyl-1H-pyrazole-4-carboxylic Acid], the half-inhibitory concentration (IC50) in assay [1] was in the range of 10 to 100 nM; in assay [2], 1000 to 10000 nM. Also, in assay [3], the EC50 lay in the range of 1000 to 10000 nM.
Take `CN(C(=O)c1cccc(-c2cccc(-n3ncc(C(=O)O)c3C3CC3)c2)c1F)C1CCCC1` [Example 3, 1-(3-{3-[Cyclopentyl(methyl)carbamoyl]-2-fluorophenyl}phenyl)-5-cyclopropyl-1H-pyrazole-4-carboxylic Acid]: the results for the half-maximal inhibitory concentration (IC50) in assay [1] and in assay [2] were 100 to 1000 nM and 1000 to 10000 nM, respectively. Besides, the EC50 in assay [3] was 1000 to 10000 nM.
In the case of `CN(C(=O)c1cccc(-c2cccc(-n3ncc(C(=O)O)c3C3CC3)c2)c1F)C1CCCCC1` [Example 5, 1-(3-{3-[Cyclohexyl(methyl)carbamoyl]-2-fluorophenyl}phenyl)-5-cyclopropyl-1H-pyrazole-4-carboxylic Acid], the IC50 was in the range of 100 to 1000 nM in assay [1] and 1000 to 10000 nM in assay [2]. For the same molecule, the EC50 in assay [3] fell in the range of 1000 to 10000 nM.
`O=C(O)c1cnn(-c2cccc(-c3cccc(-n4ncc5c4C(C4CC4)CC5)c3)c2)c1C1CC1` (stereo not drawn) [Example 207, 5-Cyclopropyl-1-(3′-(6-cyclopropyl-5,6-dihydrocyclopenta[c]pyrazol-1(4H)-yl)-[1,1′-biphenyl]-3-yl)-1H-pyrazole-4-carboxylic Acid]: the 50% inhibitory concentration (IC50) was 100 to 1000 nM in assay [1] and 1000 to 10000 nM in assay [2]. Moreover, in assay [3], the EC50 fell in the range of 1000 to 10000 nM.
In the case of `CC(C)Oc1cccc(-c2cccc(-n3ncc(C(=O)O)c3C(F)(F)F)n2)c1` [Example 66, 1-(6-(3-Isopropoxyphenyl)pyridin-2-yl)-5-(trifluoromethyl)-1H-pyrazole-4-carboxylic Acid], the IC50 was 1000 to 10000 nM in assay [1] and more than 100000 nM in assay [2]. For the same molecule, in assay [3], the half-maximal effective concentration (EC50) was in the range of 1000 to 10000 nM.
With `CC(C)Oc1cccc(-c2cccc(-n3ncc(C(=O)O)c3C3CC3c3cn(C)nn3)c2)c1F` (stereo not drawn) [Example 181, 1-(2′-Fluoro-3′-isopropoxy-[1,1′-biphenyl]-3-yl)-5-(2-(1-methyl-1H-1,2,3-triazol-4-yl)cyclopropyl)-1H-pyrazole-4-carboxylic acid], the IC50 in assay [1] lay within 100 to 1000 nM; in assay [2], 1000 to 10000 nM. Moreover, the EC50 in assay [3] lay in the range of 1000 to 10000 nM.
For the molecule `Cc1ccnn1-c1cccc(-c2cccc(-n3ncc(C(=O)O)c3C3CC3)c2)c1` [Example 36, 5-Cyclopropyl-1-{3-[3-(5-methyl-1H-pyrazol-1-yl)phenyl]phenyl}-1H-pyrazole-4-carboxylic Acid], the figures for the 50% inhibitory concentration (IC50) in assay [1] and in assay [2] were 100 to 1000 nM and 1000 to 10000 nM, respectively. The 50% effective concentration (EC50) in assay [3] (BEAS-2B, 48 h) is 1000 to 10000 nM.
As for `CCC[C@@H]1CCCCN1C(=O)c1cccc(-c2cc(C)cc(-n3ncc(C(=O)O)c3[C@H]3C[C@@H]3c3cn(C)nn3)c2)c1` (single isomer, unassigned) [Example 156], the IC50 in assay [1] and in assay [2] was 100 to 1000 nM throughout. The EC50 in assay [3] (BEAS-2B, 48 h) is 100 to 1000 nM.
Consider `COCC1CCCCN1C(=O)c1cccc(-c2cccc(-n3ncc(C(=O)O)c3C3CC3)c2)c1F` (stereo not drawn) [Example 22, 5-Cyclopropyl-1-(3-{2-fluoro-3-[2-(methoxymethyl)piperidine-1-carbonyl]phenyl}phenyl)-1H-pyrazole-4-carboxylic Acid], for which the values for the IC50 in assay [1] and in assay [2] were 10 to 100 nM and 1000 to 10000 nM, respectively. For the same molecule, the EC50 in assay [3] was in the range of 1000 to 10000 nM.
For the molecule `O=C(O)c1cnn(-c2cccc(-c3cccc(C(=O)N4C5CCC4COC5)c3F)c2)c1C1CC1` [Example 32, 5-cyclopropyl-1-[3-(2-fluoro-3-{3-oxa-8-azabicyclo[3.2.1]octane-8-carbonyl}phenyl)phenyl]-1H-pyrazole-4-carboxylic Acid], the figures for the IC50 in assay [1] and in assay [2] were 100 to 1000 nM and 1000 to 10000 nM, respectively. Moreover, the EC50 in assay [3] lay within 1000 to 10000 nM.
Consider `CCCN(CC1CC1)C(=O)c1cccc(-c2cccc(-n3ncc(C(=O)O)c3C3CC3)c2)c1C` [Example 16, 5-Cyclopropyl-1-(3-{3-[(cyclopropylmethyl)(propyl)carbamoyl]-2-methylphenyl}phenyl)-1H-pyrazole-4-carboxylic Acid], for which the IC50 lay within 100 to 1000 nM in assay [1] and 1000 to 10000 nM in assay [2]. For the same molecule, the half-maximal effective concentration (EC50) in assay [3] fell in the range of 1000 to 10000 nM.
